Earlier results as cited in US20130280327A1, “ZOLPIDEM-BASED ORODISPERSIBLE PHARMACEUTICAL TABLET” (Sanofi, priority 2010, published 2013).

Conditions: hypnotic action, oral, conventional formulations

Cc1ccc(-c2nc3ccc(C)cn3c2CC(=O)N(C)C)cc1 [zolpidem]
duration of action: up to 6 hours
